From US20230234967A1, “Fused Azole Heterocycles as AHR Antagonists” (Senda Biosciences, Inc., priority 2021, published 2023)

Experiment: Hepatocyte Stability Assay, mouse hepatocytes
Assay type: in vitro ADME
Conditions: cryopreserved mouse hepatocytes, read-out: Mouse hepatocyte clearance
Method: Example 32: Hepatocyte Stability Assay
Preparation of working solutions: 10 mM stock solutions of test compound and positive control were prepared in DMSO. In separate conical tubes, the 10 mM solution of test compound and the positive control were diluted to 100 μM by combining 198 μL of 50% acetonitrile/50% water and 2 μL of 10 mM stock.
Preparation of Hepatocytes: Incubation medium (William's E Medium supplemented with GlutaMAX) and hepatocyte thawing medium were placed in a 37° C. water bath and allowed warming for at least 15 minutes prior to use. A vial of cryopreserved hepatocytes was transferred from storage, ensuring that vials remained at cryogenic temperatures until thawing process ensued. Cells were thawed by placing the vial in a 37° C. water bath and gently shaking the vials for 2 minutes. […] Using an AO/PI Staining, cells were counted and the viable cell density was determined. Cells with poor viability (<75% viability) were determined to be not acceptable for use. […]
Data Analysis: All calculations were carried out using Microsoft Excel. Peak areas were determined from extracted ion chromatograms. In vitro half-life (t1/2) of parent compound was determined by regression analysis of the percent parent disappearance vs. time curve.
The in vitro half-life (in vitro t1/2) was determined from the slope value: […]

Row | CLint scaled at 1 µM | SMILES
1 | > 3 L/h/kg | COc1ccccc1-c1ccc2nc(NC(=O)c3ccnn3C)sc2n1 [Product 25, N-(5-(2-methoxyphenyl)thiazolo[5,4-b]pyridin-2-yl)-1-methyl-1H-pyrazole-5-carboxamide]
2 | > 3 L/h/kg | Cc1ccccc1-c1ccc2nc(NC(=O)c3ccccn3)sc2n1 [Product 8, N-(5-(o-tolyl)thiazolo[5,4-b]pyridin-2-yl)picolinamide]
